Source: US8779146B2, “Cilostazol cocrystals and compositions” (Nuformix Limited, priority 2010, dated 2014)
Read-outs that look alike come from different tables or passages of the source.

Key:
[1] = Gravimetric vapour sorption (GVS) moisture sorption isotherm; assay type: physicochemical; conditions: for moisture reversibly adsorbed: across the 0-90% relative humidity range at 25° C. under nitrogen; for solid form by XRPD analysis after completion of the isotherm: after GVS cycle 0-90% RH; for solid form by XRPD analysis after completion of the isotherm / hygroscopicity: 25° C.; for hygroscopicity: conclusion from GVS isotherm, 0-90% RH
Protocol: Sorption isotherms were obtained using a SMS DVS Intrinsic moisture sorption analyser, controlled by DVS Intrinsic Control software v1.0.0.30. The sample temperature was maintained at 25° C. by the instrument controls. The humidity was controlled by mixing streams of dry and wet nitrogen, with a total flow rate of 200 ml·min^−1 The relative humidity was measured by a calibrated Rotronic probe (dynamic range of 1.0-100% RH), located near the sample. The weight change, (mass relaxation) of the sample as a function of % RH was constantly monitored by the microbalance (accuracy ±0.005 mg).
Typically 5-20 mg of sample was placed in a tared mesh stainless steel basket under ambient conditions. The sample was loaded and unloaded at 40% RH and 25° C. (typical room conditions). A moisture sorption isotherm was performed as outlined in Table 1 (2 scans giving 1 complete cycle). The standard isotherm was performed at 25° C. at 10% RH intervals over a 0.5-90% RH range. Data analysis was undertaken in Microsoft Excel using DVS Analysis Suite v6.0.0.7. The sample was recovered after completion of the isotherm and re-analyzed by XRPD.

[2] = low solubility, high permeability drug; cited from earlier work
[3] = Pharmacokinetic study, oral capsule, crossover, fasted beagle dogs; conditions: male, dog, plasma, 100 mg
Protocol: (§1) A crossover study was carried out using 5 male beagle dogs with a washout period of 5 days between each treatment. Prior to dosing, the dogs were fasted overnight. The capsules were accurately filled with the amount of cilostazol or the corresponding cocrystal that was equivalent to 100 mg cilostazol. The capsules were orally administered to the dogs followed by about 10 mL of water. Food (about 250 g) was provided 4 hours post-dose to all animals.
(§2) Blood samples were collected at pre-dose, 15 and 30 minutes, and 1, 2, 3, 4, 6, 8, 10, 12 and 24 hour post-dose (12 time points) following oral dose administration. Approximately 0.8 ml of whole blood was withdrawn from the cephalic vein and placed in labelled tubes containing sodium heparin as anticoagulant (20 μL of 400 IU/mL sodium heparin solution per mL of blood). Plasma was separated by centrifuging the whole blood at about 2500 g for 10 minutes at 4° C. Separated plasma was stored below −70° C. until analysis.
(§3) A fit for purpose LC-MS/MS method was used for the determination of the cilostazol concentrations in the plasma samples. Pharmacokinetic parameters from individual samples were calculated using the non-compartmental analysis tool of the WinNonlin® software (version 5.2). The area under the plasma concentration curve (AUC) was calculated using the linear trapezoidal rule. Peak plasma concentration (Cmax) and the time taken to reach the peak plasma concentration (Tmax) were the observed values.

[4] = cited from earlier work
[5] = dog, in vivo, po, 100 mg
Protocol: as §1, §2, §3

Structure (SMILES)	moisture reversibly adsorbed [1]	solid form by XRPD analysis after completion of the isotherm [1]	hygroscopicity [1]	BCS class [2]	AUC [3]	Cmax [3]	Tmax [3]	solubility ([4]; in 0.1N HCl)	solubility ([4]; in 0.1N NaOH)	solubility ([4]; in ethanol)	solubility ([4]; in methanol)	solubility ([4]; in water)	AUC [5]	Cmax [5]	Tmax [5]
O.O=C(O)c1cc(O)ccc1O.O=C1CCc2cc(OCCCCc3nnnn3C3CCCCC3)ccc2N1	0.1 % w/w	unchanged	not hygroscopic												
O=C1CCc2cc(OCCCCc3nnnn3C3CCCCC3)ccc2N1 [Cilostazol, 6-[4-(1-cyclohexyl-1H-tetrazol-5-yl)butoxy]-3,4-dihydro-2(1H)-quinolinone]				Class II	371 ng·h/mL	81.5 ng/mL	2 h	practically insoluble	practically insoluble	slightly soluble	slightly soluble	practically insoluble			
O=C(O)c1cc(O)ccc1O.O=C1CCc2cc(OCCCCc3nnnn3C3CCCCC3)ccc2N1 [1:1 cilostazol gentisic acid cocrystal]	< 0.3 % w/w	unchanged	not hygroscopic										1216.37 ng·h/mL	471.42 ng/mL	1.00 h
